Source: patent US20240299504A1, “COMPOSITIONS AND METHODS FOR TREATING ALZHEIMERS DISEASE” (priority 2023, published 2024)

What was measured:
Type in all cases: in vivo, mouse
[1] = test system: 5×FAD mice; assay: Micro-computed tomography (μCT) of femurs, bone phenotype; details: femur μCT, 6-MO female 5×FAD vs WT mice; hPTH1-34 50 μg/Kg s.c. once daily, 5 days per week from 2-MO
Procedure: (§1) Parathyroid hormone (human) was purchased from TOCRIS Bioscience (Cat #3011/1, Abingdon, United Kingdom). WT or 5×FAD mice (both male and female) were treated with PTH1-34 intermittently [once daily injection of hPTH1-34 (50 μg/Kg) or vehicle (0.9% sodium chloride) (as a control) by subcutaneous injection, starting at 2-MO, 5 days per week] as described previously. Mice were then subjected to behavioral tests and sacrificed for examinations of their bone and brain phenotypes at the indicated ages.
Femurs of WT and 5×FAD female mouse with or without PTH1-34 treatment were detached and fixed overnight in 10% formalin and stored in PBS for further characterization by microCT (μCT). The excised femurs were placed vertically in a 12-mm-diameter scanning holder and scanned using the Scanco μCT40 (Scanco Medical AG). Settings parameters are adjusted as previously described: […], 55 kVp, and 145 μA with an integration time of 200 ms. For the cortical analysis, the bone was scanned at the midshaft of the bone for a scan of 25 slices, and the threshold for cortical bone was set at 329. The 3D reconstruction was performed using all outlined slices and analyzed by μCT evaluation program (v.6.5-2; Scanco Medical). Data were obtained on bone volume (BV), total volume (TV), BV/TV, bone density, and cortical thickness for cortical bone. […]

[2] = test system: 5×FAD mice; assay: Morris water maze (MWM)
Procedure: Parathyroid hormone (human) was purchased from TOCRIS Bioscience (Cat #3011/1, Abingdon, United Kingdom). […] Mice were then subjected to behavioral tests and sacrificed for examinations of their bone and brain phenotypes at the indicated ages. For Morris water maze (MWM), a circular water tank (diameter of 120 cm) fulfilled with water and a 10 cm platform were used. Non-toxic white powder paint was added to water to make the surface opaque to hide the escape platform. The maze was virtually divided into 4 quadrants, one of which contained the platform 1 cm below the water surface as an escape platform. Mice were trained for 5 days, four trials per day with 20 min intervals between trials and 60 s per trial to locate the hidden platform. Then mice were left on the platform for 15 s to help them remember the location. On the 6th day, the escape platform was removed and mice were placed in water at the point farthest from the platform and recorded for 60 s. The swimming track was recorded using a video tracking system, and the time spent in each platform quadrant and the number of platform crossings were quantified. All behavioral trials were recorded by use of an overhead camera and analyzed by Etho Vision software (Etho Vision, Noldus). Mice were assigned and data were quantified, in a double-blind method.

[3] = test system: IBA1 and GFAP; assay: Western blot of IBA1 and GFAP in cortex and hippocampus homogenates; details: 5×FAD brain homogenates (cortex and hippocampus), 6-MO female
Procedure: as §1
Total proteins from cortex, hippocampus, or cultured astrocytes were extracted using RIPA lysis buffer [50 mM Tris-HCl (pH7.5), 150 mM NaCl, 1 mM EDTA, 1% v/v NP-40, 0.1% SDS, 1% sodium deoxycholate supplemented with Protease Inhibitor Cocktail (Roche) and 1 mM PMSF] and analyzed by Western Blot. Lysates were cleared by centrifugation at 12,000 g for 15 min at 4° C. to remove debris and to obtain homogenates. Homogenates samples were resolved by SDS-PAGE (8˜15%) gels and then electroblotted onto nitrocellulose membranes (Cat #1620112, Bio-Rad Laboratories). […] After washing with TBST 3 times, antibody reactivity was detected by the Enhanced Chemiluminescence (ECL) detection system (Amersham Biosciences). Band density of proteins was normalized in relation to loading control and analyzed using NIH ImageJ software. […]

SMILES: CC[C@H](C)[C@H](NC(=O)[C@H](CCC(=O)O)NC(=O)[C@H](CO)NC(=O)[C@@H](NC(=O)[C@@H](N)CO)C(C)C)C(=O)N[C@@H](CCC(N)=O)C(=O)N[C@@H](CC(C)C)C(=O)N[C@@H](CCSC)C(=O)N[C@@H](Cc1cnc[nH]1)C(=O)N[C@@H](CC(N)=O)C(=O)N[C@@H](CC(C)C)C(=O)NCC(=O)N[C@@H](CCCCN)C(=O)N[C@@H](Cc1cnc[nH]1)C(=O)N[C@@H](CC(C)C)C(=O)N[C@@H](CC(N)=O)C(=O)N[C@@H](CO)C(=O)N[C@@H](CCSC)C(=O)N[C@@H](CCC(=O)O)C(=O)N[C@@H](CCCN=C(N)N)C(=O)N[C@H](C(=O)N[C@@H](CCC(=O)O)C(=O)N[C@@H](Cc1c[nH]c2ccccc12)C(=O)N[C@@H](CC(C)C)C(=O)N[C@@H](CCCN=C(N)N)C(=O)N[C@@H](CCCCN)C(=O)N[C@@H](CCCCN)C(=O)N[C@@H](CC(C)C)C(=O)N[C@@H](CCC(N)=O)C(=O)N[C@@H](CC(=O)O)C(=O)N[C@H](C(=O)N[C@@H](Cc1cnc[nH]1)C(=O)N[C@@H](CC(N)=O)C(=O)N[C@@H](Cc1ccccc1)C(=O)O)C(C)C)C(C)C [PTH1-34]
- trabecular bone mass (Tb. BV/TV) [1]: more trabecular bone mass was induced in 5×FAD mice than that in WT mice
- MWM, latency to reach hidden platform during training ([2]; 5×FAD female mice ~5-MO vs 5×FAD Veh): faster learning of the hidden platform during MWM tests
- MWM, spatial memory (time in target quadrant, target zone crossovers) ([2]; 5×FAD female mice ~5-MO vs 5×FAD Veh, testing day): better spatial memory of the platform location
- MWM, spatial learning and memory ([2]; 5×FAD male mice ~5-MO vs Veh): Little to no improvement
- GFAP protein level (Western blot) [3]: lower
- IBA1 protein level (Western blot) [3]: lower
